Reference: ChEMBL document CHEMBL1201862, “PubChem BioAssay data set” (2004)
Calls of active or inactive are those of the source.

Assays:
[1] = biological target: T1, Cytochrome P450 1A2 (Homo sapiens, UniProt P05177);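 also: PubChem cytochrome P450 panel assay, CYP1A2 panel member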
T1 sequence (P05177 whole entry): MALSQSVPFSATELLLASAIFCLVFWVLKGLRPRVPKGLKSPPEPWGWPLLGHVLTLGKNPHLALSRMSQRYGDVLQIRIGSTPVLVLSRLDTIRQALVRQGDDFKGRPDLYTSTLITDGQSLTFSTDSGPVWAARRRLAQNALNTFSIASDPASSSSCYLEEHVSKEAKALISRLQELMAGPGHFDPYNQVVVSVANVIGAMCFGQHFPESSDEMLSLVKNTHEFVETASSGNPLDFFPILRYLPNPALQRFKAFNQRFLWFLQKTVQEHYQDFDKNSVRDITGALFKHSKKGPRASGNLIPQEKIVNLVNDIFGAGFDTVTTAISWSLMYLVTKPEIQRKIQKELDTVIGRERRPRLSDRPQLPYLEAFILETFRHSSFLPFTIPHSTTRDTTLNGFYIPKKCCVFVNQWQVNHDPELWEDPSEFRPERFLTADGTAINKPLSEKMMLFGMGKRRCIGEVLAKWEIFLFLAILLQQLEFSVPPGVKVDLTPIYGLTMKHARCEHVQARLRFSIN

[2] = biological target: Cytochrome P450 2C9 (Homo sapiens, UniProt P11712)
[3] = biological target: Voltage-gated inwardly rectifying potassium channel KCNH2 (Homo sapiens, UniProt Q12809); details: Potency;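 also: confirmatory quantitative high-throughput screen measuring inhibition of hERG channel activity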
[4] = test system: HEK293; test: cells; details: Homo sapiens
[5] = test system: HEK293; test: cells; details: Homo sapiens; remark: listed apart in the source
[6] = NIH-3T3 fibroblast cytotoxicity, dose response, cytotoxicity control, cell-based, fluorescence, Alamar Blue, secondary assay (AID 2327); type: functional;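 also: NIH-3T3 mouse fibroblasts cultured with fluconazole at 8 µg/mL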
[7] = fluconazole-exposed Candida albicans growth modulators – fluorescence, retest, confirmation (AID 2467); type: functional, cell-based
[8] = Trypanosoma cruzi growth suppression in host cells – NIH3T3 host cells, beta-gal luminescence, confirmation (AID 2044); type: functional, cell-based;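 also: intracellular parasites grown in NIH/3T3 mouse fibroblasts as host cells; luminescent beta-galactosidase reporter signal from transgenic T. cruzi replicating inside host cells; inhibitors lower the luminescence signal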
[9] = NIH3T3 cell viability loss – ATP luminescence, mouse fibroblasts, counter-screen, dose response (AID 2010); type: functional, cell-based;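 also: cells exposed to compound for about 90 hours before reading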
[10] = biological target: T2, Microphthalmia-associated transcription factor (Homo sapiens, UniProt O75030); test: reducers of TRPM1 reporter luminescence, concentration series – cell-based, SK-MEL-5, cherry-picked, set 3, MITF inhibitor project, dose response (AID 493073); type: functional;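 also: SK-MEL-5 melanoma cells with luciferase driven by the MITF target TRPM1 promoter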
T2 sequence (O75030 whole entry): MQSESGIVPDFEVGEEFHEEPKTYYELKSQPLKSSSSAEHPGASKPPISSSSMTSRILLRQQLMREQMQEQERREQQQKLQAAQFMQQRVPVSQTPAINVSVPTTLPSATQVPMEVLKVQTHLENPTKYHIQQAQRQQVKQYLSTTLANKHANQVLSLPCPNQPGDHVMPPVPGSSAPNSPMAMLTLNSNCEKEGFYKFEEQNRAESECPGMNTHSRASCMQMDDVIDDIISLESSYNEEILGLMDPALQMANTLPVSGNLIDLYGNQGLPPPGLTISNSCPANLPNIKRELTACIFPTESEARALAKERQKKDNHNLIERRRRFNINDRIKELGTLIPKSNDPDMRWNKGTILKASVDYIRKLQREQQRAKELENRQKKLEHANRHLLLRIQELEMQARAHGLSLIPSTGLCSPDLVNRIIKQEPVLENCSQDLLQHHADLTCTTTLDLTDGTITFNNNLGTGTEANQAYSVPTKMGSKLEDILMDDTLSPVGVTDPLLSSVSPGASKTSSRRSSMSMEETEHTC

[11] = biological target: T3, Replicative DNA helicase DnaB (Mycobacterium tuberculosis, UniProt P9WMR3); test: DnaB intein splicing inhibitors, dose response, biochemical, cell-free fluorescence (AID 449749); type: functional
T3 sequence (P9WMR3 whole entry): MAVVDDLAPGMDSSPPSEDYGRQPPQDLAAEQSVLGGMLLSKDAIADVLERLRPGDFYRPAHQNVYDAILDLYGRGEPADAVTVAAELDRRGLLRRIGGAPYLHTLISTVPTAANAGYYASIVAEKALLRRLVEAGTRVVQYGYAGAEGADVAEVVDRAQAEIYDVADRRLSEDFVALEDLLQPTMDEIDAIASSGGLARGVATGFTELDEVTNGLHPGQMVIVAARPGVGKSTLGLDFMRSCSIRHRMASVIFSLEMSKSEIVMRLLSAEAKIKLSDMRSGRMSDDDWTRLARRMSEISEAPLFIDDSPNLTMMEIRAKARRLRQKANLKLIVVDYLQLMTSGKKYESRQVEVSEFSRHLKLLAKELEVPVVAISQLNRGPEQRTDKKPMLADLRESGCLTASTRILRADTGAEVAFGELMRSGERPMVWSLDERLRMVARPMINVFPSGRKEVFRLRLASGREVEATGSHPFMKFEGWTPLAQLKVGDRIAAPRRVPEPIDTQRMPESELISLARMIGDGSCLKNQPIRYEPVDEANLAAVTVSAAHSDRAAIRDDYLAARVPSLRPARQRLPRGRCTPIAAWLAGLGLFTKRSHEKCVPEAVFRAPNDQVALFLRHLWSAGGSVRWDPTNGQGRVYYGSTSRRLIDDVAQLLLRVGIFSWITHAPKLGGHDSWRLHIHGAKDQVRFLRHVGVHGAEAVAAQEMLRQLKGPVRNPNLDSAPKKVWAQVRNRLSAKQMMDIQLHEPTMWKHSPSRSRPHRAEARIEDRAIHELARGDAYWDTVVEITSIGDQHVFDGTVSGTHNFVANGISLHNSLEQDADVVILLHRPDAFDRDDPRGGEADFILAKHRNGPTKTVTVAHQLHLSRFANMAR

[12] = biological target: T4, Protein RecA (Mycobacterium tuberculosis, UniProt P9WHJ3); test: Fluorescence Cell-Free Homogeneous Dose Retest to Identify Inhibitors of RecA-Intein Splicing Activity. [Related pubchem assays (depositor defined):AID2097, AID2223, AID489010, AID492950]; type: functional
T4 sequence (P9WHJ3 whole entry): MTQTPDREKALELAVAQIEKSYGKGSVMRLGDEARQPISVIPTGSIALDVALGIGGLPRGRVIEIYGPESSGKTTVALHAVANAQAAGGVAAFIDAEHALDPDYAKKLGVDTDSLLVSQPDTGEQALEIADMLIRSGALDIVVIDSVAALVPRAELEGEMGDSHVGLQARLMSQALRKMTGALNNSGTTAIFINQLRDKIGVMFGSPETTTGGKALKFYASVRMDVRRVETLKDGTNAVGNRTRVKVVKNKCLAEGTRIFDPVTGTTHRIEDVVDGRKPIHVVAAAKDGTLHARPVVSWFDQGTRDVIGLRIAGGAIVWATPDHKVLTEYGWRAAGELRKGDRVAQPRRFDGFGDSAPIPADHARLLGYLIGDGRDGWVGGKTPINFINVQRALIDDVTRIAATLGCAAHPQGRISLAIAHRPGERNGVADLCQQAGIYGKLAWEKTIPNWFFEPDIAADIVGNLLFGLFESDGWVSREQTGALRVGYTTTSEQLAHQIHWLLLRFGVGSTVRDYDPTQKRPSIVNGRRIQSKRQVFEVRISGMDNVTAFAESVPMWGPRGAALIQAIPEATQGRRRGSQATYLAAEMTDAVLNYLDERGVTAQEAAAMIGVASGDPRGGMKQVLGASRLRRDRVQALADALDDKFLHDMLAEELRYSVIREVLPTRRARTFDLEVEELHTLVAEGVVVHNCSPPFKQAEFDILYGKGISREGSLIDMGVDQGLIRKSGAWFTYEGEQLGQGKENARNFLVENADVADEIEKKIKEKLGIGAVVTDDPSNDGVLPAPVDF

[13] = test system: A-375; test: proliferation inhibition in MITF-low A375 cells – cell-based, cherry-pick samples, set 2, counter-screen for MITF modulator project, dose response (AID 540335); type: functional; details: Homo sapiens

Voltage-gated inwardly rectifying potassium channel KCNH2, sequence (Q12809 whole entry): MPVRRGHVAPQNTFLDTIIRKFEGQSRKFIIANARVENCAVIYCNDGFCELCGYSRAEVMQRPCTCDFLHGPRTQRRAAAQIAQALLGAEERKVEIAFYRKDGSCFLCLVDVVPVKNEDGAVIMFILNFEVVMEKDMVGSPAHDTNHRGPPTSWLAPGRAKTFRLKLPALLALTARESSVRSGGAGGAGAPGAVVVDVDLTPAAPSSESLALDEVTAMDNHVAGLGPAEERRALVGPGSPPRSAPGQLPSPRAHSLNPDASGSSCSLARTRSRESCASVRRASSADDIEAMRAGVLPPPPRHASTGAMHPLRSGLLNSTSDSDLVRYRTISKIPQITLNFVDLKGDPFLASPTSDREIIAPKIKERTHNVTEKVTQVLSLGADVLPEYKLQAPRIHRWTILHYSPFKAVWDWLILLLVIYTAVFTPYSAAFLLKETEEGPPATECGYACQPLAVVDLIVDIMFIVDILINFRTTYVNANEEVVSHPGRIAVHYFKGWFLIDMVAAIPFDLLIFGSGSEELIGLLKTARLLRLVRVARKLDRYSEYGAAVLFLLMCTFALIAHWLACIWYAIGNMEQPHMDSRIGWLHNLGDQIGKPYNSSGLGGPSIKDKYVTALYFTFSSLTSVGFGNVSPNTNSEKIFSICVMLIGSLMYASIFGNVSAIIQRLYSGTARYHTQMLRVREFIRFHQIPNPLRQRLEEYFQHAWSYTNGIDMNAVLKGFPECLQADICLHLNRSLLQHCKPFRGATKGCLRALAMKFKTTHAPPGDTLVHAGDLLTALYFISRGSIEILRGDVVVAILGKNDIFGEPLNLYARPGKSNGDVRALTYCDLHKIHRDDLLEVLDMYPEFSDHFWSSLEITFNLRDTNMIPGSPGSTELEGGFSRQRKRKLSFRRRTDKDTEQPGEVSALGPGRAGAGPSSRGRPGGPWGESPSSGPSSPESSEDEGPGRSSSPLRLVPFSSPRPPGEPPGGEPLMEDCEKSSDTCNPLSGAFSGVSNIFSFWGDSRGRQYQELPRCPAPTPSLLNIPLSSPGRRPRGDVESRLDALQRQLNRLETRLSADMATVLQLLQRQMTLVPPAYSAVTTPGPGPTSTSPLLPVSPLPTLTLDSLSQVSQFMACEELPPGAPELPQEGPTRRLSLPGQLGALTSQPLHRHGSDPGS
Cytochrome P450 2C9, sequence (P11712 whole entry): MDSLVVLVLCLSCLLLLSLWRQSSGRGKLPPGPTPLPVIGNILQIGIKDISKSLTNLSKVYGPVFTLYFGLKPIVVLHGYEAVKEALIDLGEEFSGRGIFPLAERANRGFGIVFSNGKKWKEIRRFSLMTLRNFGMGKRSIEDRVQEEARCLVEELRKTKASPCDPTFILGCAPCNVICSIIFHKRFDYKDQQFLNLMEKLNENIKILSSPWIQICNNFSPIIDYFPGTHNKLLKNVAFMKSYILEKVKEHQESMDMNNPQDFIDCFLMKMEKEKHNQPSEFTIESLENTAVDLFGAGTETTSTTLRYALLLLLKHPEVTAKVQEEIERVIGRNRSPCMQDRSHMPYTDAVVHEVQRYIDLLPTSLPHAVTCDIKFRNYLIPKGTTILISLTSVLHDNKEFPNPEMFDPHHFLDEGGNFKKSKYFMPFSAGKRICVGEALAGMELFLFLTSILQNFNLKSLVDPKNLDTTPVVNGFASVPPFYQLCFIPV

CCCCCCN(CCCCCC)C(=O)Cc1c(-c2ccc(F)cc2)[nH]c2ccccc12
AC50 [1]: 15.8 µM (inconclusive) | AC50 [2]: 5.01 µM (inconclusive) | AC50 [3]: 8.91 µM (inconclusive)

COc1ccc(CC(C)NCC(O)c2ccc(O)c(NC=O)c2)cc1 (stereo unspecified)
EC50 [4]: > 59.6 µM (inactive) | EC50 [5]: > 59.6 µM (inactive)

Cc1ccc(S(=O)(=O)Cn2nnnc2C(C(C)C)N2CCc3ccccc3C2)cc1 (stereo unspecified)
EC50 [4]: > 59.6 µM (inactive) | EC50 [5]: > 59.6 µM (inactive)

CCCCCCCCCCCCCC(=O)O[C@@H]1[C@@H](C)[C@@]2(O)[C@@H](C=C(CO)C[C@@]3(O)C(=O)C(C)=C[C@@H]23)C2C(C)(C)[C@@]21OC(C)=O (stereo partly specified)
AC50 [3]: 0.112 µM (inconclusive)

O=C(CCl)N1c2ccccc2CCc2ccccc21
EC50 [6]: 5.37 µM (inconclusive) | EC50 [7]: 2.36 µM (active) | EC50 [8]: 2.09 µM (active) | EC50 [9]: 4.26 µM (active) | AC50 [10]: 5.54 µM (active) | AC50 [11]: 7.5 µM (active) | EC50 [12]: 0.45 µM (active) | AC50 [13]: 42.7 µM (active)
